Results from patent US9481639B2, “Substituted tetracycline compounds for treatment of inflammatory skin disorders” (Paratek Pharmaceuticals, Inc., priority 2006, dated 2016).
Values after ≈ are worked out from the molar mass of the structure shown. Where two headings read alike, the source gives them in different places.

Tests used:
[1] = in vitro; type: cell-based
Method: Mammalian cell cytotoxicity was assessed to evaluate potential in vivo risks associated with the tetracycline compounds of the invention. A soluble, non-toxic redox dye (“Resazurin”; Alamar Blue) was used to assess a tetracycline compound's effect on cellular metabolism. At the onset of the experiment, cultures of mammalian COS-1 or CHO cells were washed, trypsinized, and harvested. […] On the next day, serial dilutions of test drug were prepared under sterile conditions and transferred to cell plates. Plates were then incubated under the above conditions for 24 hours. Following the incubation period, the media/drug was aspirated, and 50 μL of resazurin was added. Plates were then incubated under the above conditions for 2 hours and then in the dark at room temperature for an additional 30 minutes. Fluorescence measurements were taken (excitation 535 nm, emission 590 nm) and toxic effects in treated versus control cells were compared based on the degree of fluorescence in each well.

[2] = test system: B. thetaiotaomicron ATCC 29741; test: Antibacterial MIC, CLSI broth microdilution; type: cell-based
Method: (§1) Gram (−) and gram (+) antibacterial minimum inhibitory concentration (MIC) values (μg/mL) were obtained using CLSI methodology for anti-bacterial susceptibility testing. On each day of testing, serial dilutions of compounds were prepared in microdilution plates using a Tecan robotic workstation. Mueller Hinton broth cultures of representative sensitive and resistant gram negative strains were grown or adjusted to match the turbidity of a 0.5 McFarland standard. 1:200 dilutions were made in an appropriate broth (cation supplemented Mueller Hinton broth) to allow a final inoculum of 1×10^5 cfu. Plates were incubated at 35° C. in ambient air for 18-24 hours, were read spectrophotometrically and checked manually for evidence of bacterial growth. The lowest dilution of compound that inhibited growth was recorded as the MIC. Lysed horse blood was used to supplement broth for testing S. pneumoniae. The MIC's for each compound were assessed against S. aureus, S. pneumoniae, P. acnes, E. coli and B. theta.

[3] = test system: E. coli ATCC 25922; test: Antibacterial MIC, CLSI broth microdilution; type: cell-based; conditions: Escherichia coli, ATCC25922; 35° C., 18-24 hours
Method: as §1

[4] = test system: E. coli MG. 1655; test: Antibacterial MIC, CLSI broth microdilution; type: cell-based; conditions: Escherichia coli, 35° C., 18-24 hours
Method: as §1

[5] = test system: P. acnes ATCC 11827; test: Antibacterial MIC, CLSI broth microdilution; type: cell-based; conditions: Cutibacterium acnes, ATCC11827
Method: as §1

[6] = test system: P. acnes ATCC 6919; test: Antibacterial MIC, CLSI broth microdilution; type: cell-based; conditions: Cutibacterium acnes, ATCC6919
Method: as §1

[7] = test system: S. aureus RN450; test: Antibacterial MIC, CLSI broth microdilution; type: cell-based; conditions: Staphylococcus aureus, 35° C., 18-24 hours
Method: as §1

[8] = test system: S. pneumoniae 157E - Strep; test: Antibacterial MIC, CLSI broth microdilution; type: cell-based; conditions: Streptococcus pneumoniae, 157ESTREP; broth supplemented with lysed horse blood
Method: as §1

[9] = test system: S. aureus RN450; test: In vivo anti-bacterial activity, S. aureus lethal infection model; conditions: Staphylococcus aureus, sc; mice, lethal IP S. aureus RN450, subcutaneous, 24 hours; read-out: PD50 (dose that protects 50% of the animals)
Method: Groups of five mice were injected intraperitoneally with a lethal dose of S. aureus RN450 in a medium of mucin. Mice were evaluated at 24 hours to determine survival. […] In some instances, a dose response study was performed with the compound such that a PD50 (a dose of compound that protects 50% of the animals) could be calculated.

[10] = Bacteroides thetaiotaomicron, ATCC29741; read-out: MIC B. thetaiotaomicron ATCC 29741
[11] = Bacteroides thetaiotaomicron, ATCC29741, read-out: MIC B. thetaiotaomicron ATCC 29741

Row | Structure (SMILES) | IC50 at 24 h ([1]; African green monkey) | IC50 at 24 h ([1]; Chinese hamster) | MIC [2, 10] | MIC [3] | MIC [4] | MIC [5] | MIC [6] | MIC [7] | MIC [8] | ED50 [9] | MIC [2, 11]
1 | CC(C)ONCc1ccc(O)c2c1C[C@H]1C[C@H]3[C@H](N(C)C)C(O)=C(C(N)=O)C(=O)[C@@]3(O)C(O)=C1C2=O [Compound AN, (4S,4aS,5aR,12aS)-4-Dimethylamino-3,10,12,12a-tetrahydroxy-7-(isopropoxyamino-methyl)-1,11-dioxo-1,4,4a,5,5a,6,11,12a-octahydro-naphthacene-2-carboxylic acid amide] | < 35 µg/mL | < 35 µg/mL | – | – | – | – | – | – | – | – | –
2 | CN(C)[C@@H]1C(O)=C(C(N)=O)C(=O)[C@@]2(O)C(O)=C3C(=O)c4c(O)ccc(CNOCC(F)F)c4C[C@H]3C[C@@H]12 [AR] | < 35 µg/mL | 35 to 75 µg/mL (≈ 66.9 to 143 µM) | – | – | – | – | – | – | – | – | –
3 | CN(C)[C@H]1C(O)=C(C(N)=O)C(=O)[C@@]2(O)C(O)=C3C(=O)c4c(O)ccc(CNOCC(F)(F)F)c4C[C@H]3C[C@@H]12 [AU] | > 75 µg/mL | > 75 µg/mL | – | – | – | – | – | – | – | – | –
4 | CCONCc1ccc2c(c1O)C(=O)C1=C(O)[C@]3(O)C(=O)C(C(N)=O)=C(O)[C@@H](N(C)C)[C@@H]3C[C@@H]1C2 [AQ] | < 35 µg/mL | < 35 µg/mL | – | – | – | – | – | – | – | – | –
5 | CCON=C(C)c1cc(N)c(O)c2c1C[C@H]1C[C@H]3[C@H](N(C)C)C(O)=C(C(N)=O)C(=O)[C@@]3(O)C(O)=C1C2=O [M] | > 75 µg/mL | > 75 µg/mL | 4 to 8 µg/mL (≈ 7.77 to 15.5 µM) | < 4 µg/mL | 4 to 8 µg/mL (≈ 7.77 to 15.5 µM) | < 4 µg/mL | < 4 µg/mL | < 4 µg/mL | < 4 µg/mL | – | –
6 | CC(=NOC(C)(C)C)c1cc(N)c(O)c2c1C[C@H]1C[C@H]3[C@@H](N(C)C)C(O)=C(C(N)=O)C(=O)[C@@]3(O)C(O)=C1C2=O [R] | < 35 µg/mL | < 35 µg/mL | 4 to 8 µg/mL (≈ 7.37 to 14.7 µM) | > 8 µg/mL | > 8 µg/mL | < 4 µg/mL | < 4 µg/mL | < 4 µg/mL | < 4 µg/mL | – | –
7 | CN(C)CCC(=NOC(C)(C)C)c1ccc(O)c2c1C[C@H]1C[C@H]3[C@H](N(C)C)C(O)=C(C(N)=O)C(=O)[C@@]3(O)C(O)=C1C2=O [O] | 35 to 75 µg/mL (≈ 59.9 to 128 µM) | < 35 µg/mL | < 4 µg/mL | < 4 µg/mL | < 4 µg/mL | < 4 µg/mL | < 4 µg/mL | < 4 µg/mL | < 4 µg/mL | – | –
8 | CN(C)[C@@H]1C(O)=C(C(N)=O)C(=O)[C@@]2(O)C(O)=C3C(=O)c4cccc(-c5cnccn5)c4C[C@H]3C[C@@H]12 [Compound W, (4S,4aS,5aR,12aS)-4-Dimethylamino-3,12,12a-trihydroxy-1,11-dioxo-7-pyrazin-2-yl-1,4,4a,5,5a,6,11,12a-octahydro-naphthacene-2-carboxylic acid amide] | > 75 µg/mL | > 75 µg/mL | > 8 µg/mL | > 8 µg/mL | > 8 µg/mL | < 4 µg/mL | < 4 µg/mL | < 4 µg/mL | < 4 µg/mL | 1.08 mg/kg | –
9 | COC(=O)CONCc1ccc(O)c2c1C[C@H]1C[C@H]3[C@H](N(C)C)C(O)=C(C(N)=O)C(=O)[C@@]3(O)C(O)=C1C2=O [AX] | < 35 µg/mL | < 35 µg/mL | – | – | – | – | – | – | – | – | –
10 | CN(C)[C@@H]1C(O)=C(C(N)=O)C(=O)[C@@]2(O)C(O)=C3C(=O)c4c(O)ccc(CNOCC(F)(F)F)c4C[C@H]3C[C@@H]12 [AT] | < 35 µg/mL | < 35 µg/mL | – | – | – | – | – | – | – | – | –
11 | CCON=C(C)c1cc(CNCC(C)(C)C)c(O)c2c1C[C@H]1C[C@H]3[C@H](N(C)C)C(O)=C(C(N)=O)C(=O)[C@@]3(O)C(O)=C1C2=O [Compound N, (4S,4aS,5aR,12aS)-4-Dimethylamino-9-[(2,2-dimethyl-propylamino)-methyl]-7-(1-ethoxyimino-ethyl)-3,10,12,12a-tetrahydroxy-1,11-dioxo-1,4,4a,5,5a,6,11,12a-octahydro-naphthacene-2-carboxylic acid amide] | > 75 µg/mL | > 75 µg/mL | < 4 µg/mL | < 4 µg/mL | 4 to 8 µg/mL (≈ 6.68 to 13.4 µM) | < 4 µg/mL | < 4 µg/mL | < 4 µg/mL | < 4 µg/mL | – | –
12 | CN(C)[C@@H]1C(O)=C(C(N)=O)C(=O)[C@@]2(O)C(O)=C3C(=O)c4c(O)ccc(CN5CCCCO5)c4C[C@H]3C[C@@H]12 [AV] | 35 to 75 µg/mL (≈ 68.2 to 146 µM) | 35 to 75 µg/mL (≈ 68.2 to 146 µM) | – | – | – | – | – | – | – | – | –
13 | CON(C)Cc1ccc(O)c2c1C[C@H]1C[C@H]3[C@@H](N(C)C)C(O)=C(C(N)=O)C(=O)[C@@]3(O)C(O)=C1C2=O [Y] | – | – | – | – | – | – | – | – | – | – | > 8 µg/mL
14 | CN(C)[C@@H]1C(O)=C(C(N)=O)C(=O)[C@@]2(O)C(O)=C3C(=O)c4c(O)ccc(CNOCCF)c4C[C@H]3C[C@@H]12 [Compound AO, (4S,4aS,5aR,12aS)-4-Dimethylamino-7-[(2-fluoro-ethoxyamino)-methyl]-3,10,12,12a-tetrahydroy-1,11-dioxo-1,4,4a,5,5a,6,11,12a-octahydro-naphthacene-2-carboxylic acid amide] | > 75 µg/mL | > 75 µg/mL | – | – | – | – | – | – | – | – | –
15 | CCON=C(CCN(C)C)c1ccc(O)c2c1C[C@H]1C[C@H]3[C@@H](N(C)C)C(O)=C(C(N)=O)C(=O)[C@@]3(O)C(O)=C1C2=O [Compound I, (4R,4aS,5aR,12aS)-4-Dimethylamino-7-(3-dimethylamino-1-ethoxyimino-propyl)-3,10,12,12a-tetrahydroxy-1,11-dioxo-1,4,4a,5,5a,6,11,12a-octahydro-naphthacene-2-carboxylic acid amide] | > 75 µg/mL | > 75 µg/mL | 4 to 8 µg/mL (≈ 7.19 to 14.4 µM) | < 4 µg/mL | < 4 µg/mL | < 4 µg/mL | < 4 µg/mL | < 4 µg/mL | < 4 µg/mL | – | –
16 | CC(=NOCC(F)(F)F)c1cc(N)c(O)c2c1C[C@H]1C[C@H]3[C@H](N(C)C)C(O)=C(C(N)=O)C(=O)[C@@]3(O)C(O)=C1C2=O [Compound AW, (4S,4aS,5aR,12aS)-9-Amino-4-dimethylamino-3,10,12,12a-tetrahydroxy-1,1,1-dioxo-7-[1-(2,2,2-trifluoro-ethoxyimino)-ethyl]-1,4,4a,5,5a,6,11,12a-octahydro-naphthacene-2-carboxylic acid amide] | – | – | 4 to 8 µg/mL (≈ 7.04 to 14.1 µM) | 4 to 8 µg/mL (≈ 7.04 to 14.1 µM) | 4 to 8 µg/mL (≈ 7.04 to 14.1 µM) | < 4 µg/mL | < 4 µg/mL | < 4 µg/mL | < 4 µg/mL | – | –
17 | CON(C)Cc1ccc(O)c2c1C[C@H]1C[C@H]3[C@H](N(C)C)C(O)=C(C(N)=O)C(=O)[C@@]3(O)C(O)=C1C2=O [Compound P] | – | – | – | – | – | – | – | – | – | – | 4 to 8 µg/mL (≈ 8.2 to 16.4 µM)
18 | CON(C)Cc1ccc2c(c1O)C(=O)C1=C(O)[C@]3(O)C(=O)C(C(N)=O)=C(O)[C@@H](N(C)C)[C@@H]3C[C@@H]1C2 [Compound AP] | 35 to 75 µg/mL (≈ 71.8 to 154 µM) | 35 to 75 µg/mL (≈ 71.8 to 154 µM) | 4 to 8 µg/mL (≈ 8.2 to 16.4 µM) | – | – | – | – | – | – | – | –
19 | CN(C)[C@H]1C(O)=C(C(N)=O)C(=O)[C@@]2(O)C(O)=C3C(=O)c4c(O)ccc(CNOCC(F)F)c4C[C@H]3C[C@@H]12 [AS] | > 75 µg/mL | > 75 µg/mL | – | – | – | – | – | – | – | – | –
